According to PubChem BioAssay (NCI):
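Briefly, cells in 96-well plates were exposed to five compound concentrations for 48 h, and endpoints were estimated by linear interpolation. TGI is the concentration that stops growth completely.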

Experiments:
Assay in all cases: inhibition of tumour cell growth, NCI panel, 48 h
[1] = test system: ACHN renal
[2] = test system: HOP-62 NSCLC
[3] = test system: A549 NSCLC
[4] = test system: NCI-H522 lung
[5] = test system: MOLT-4 leukemia
[6] = test system: NCI-H226 lung
[7] = test system: EKVX NSCLC
[8] = test system: OVCAR-4 ovarian
[9] = test system: SNB-75 CNS
[10] = test system: SW-620 colon
[11] = test system: SK-OV-3 ovarian
[12] = test system: HT29 colon
[13] = test system: HCT-15 colon
[14] = test system: MDA-MB-231 breast
[15] = test system: IGROV1 ovarian
[16] = test system: SK-MEL-5 melanoma
[17] = test system: T-47D breast
[18] = test system: A498 renal
[19] = test system: K-562 leukemia

Cc1csc(NNC(N)=O)n1
TGI [1]: > 100 µM | TGI [2]: > 100 µM | TGI [3]: > 100 µM | TGI [4]: > 100 µM | TGI [5]: > 100 µM | TGI [6]: > 100 µM | TGI [7]: > 100 µM | TGI [8]: > 100 µM | TGI [9]: > 100 µM | TGI [10]: > 100 µM | TGI [11]: > 100 µM | TGI [12]: > 100 µM | TGI [13]: > 100 µM | TGI [14]: > 100 µM | TGI [15]: > 100 µM | TGI [16]: > 100 µM

O=c1[nH]nc(-c2ccccc2)n1/N=C/c1ccco1
TGI [1]: > 100 µM | TGI [2]: > 100 µM | TGI [3]: > 100 µM | TGI [4]: > 100 µM | TGI [17]: > 100 µM | TGI [5]: > 100 µM | TGI [7]: > 100 µM | TGI [8]: > 100 µM | TGI [9]: > 100 µM | TGI [10]: > 100 µM | TGI [11]: > 100 µM | TGI [18]: > 100 µM | TGI [12]: > 100 µM | TGI [13]: > 100 µM | TGI [15]: > 100 µM | TGI [16]: > 100 µM

COC(=O)c1c(C)[nH]c2c1C(=O)C(=O)c1nc(C)c(C)nc1-2
TGI [1]: 47.3 µM | TGI [2]: 22 µM | TGI [3]: > 100 µM | TGI [4]: 21.4 µM | TGI [17]: 9.55 µM | TGI [5]: 95 µM | TGI [6]: 26.7 µM | TGI [7]: 22.6 µM | TGI [8]: 28.7 µM | TGI [9]: 7.95 µM | TGI [10]: 41.7 µM | TGI [19]: > 100 µM | TGI [11]: 18.5 µM | TGI [18]: 40 µM | TGI [12]: 59.6 µM | TGI [13]: > 100 µM | TGI [15]: 36.1 µM | TGI [16]: 20 µM

CCOC(=O)/C(=C\NC(C)(C)C)c1nc2ccccc2[nH]1
TGI [1]: 40.9 µM | TGI [2]: 58.5 µM | TGI [3]: > 100 µM | TGI [4]: 45.9 µM | TGI [6]: 47 µM | TGI [7]: 34.5 µM | TGI [8]: 59.6 µM | TGI [9]: 68.7 µM | TGI [10]: 93 µM | TGI [11]: 78.8 µM | TGI [18]: 57.3 µM | TGI [12]: 42.6 µM | TGI [13]: > 100 µM | TGI [15]: 69.4 µM | TGI [16]: 25.5 µM

c1ccc2c(c1)nn1c3ccc4nonc4c3[n-][n+]21
TGI [1]: > 100 µM | TGI [2]: > 100 µM | TGI [3]: > 100 µM | TGI [4]: > 100 µM | TGI [5]: > 100 µM | TGI [6]: > 100 µM | TGI [7]: > 100 µM | TGI [8]: > 100 µM | TGI [9]: > 100 µM | TGI [10]: > 100 µM | TGI [19]: > 100 µM | TGI [18]: > 100 µM | TGI [12]: > 100 µM | TGI [13]: > 100 µM | TGI [14]: > 100 µM | TGI [15]: > 100 µM | TGI [16]: > 100 µM

COc1cc2c(oc(=O)c3c4occc4cc(OC)c23)c2cccc(OCc3ccccc3)c12
TGI [1]: > 100 µM | TGI [2]: > 100 µM | TGI [3]: > 100 µM | TGI [4]: > 100 µM | TGI [5]: > 100 µM | TGI [6]: > 100 µM | TGI [7]: > 100 µM | TGI [8]: > 100 µM | TGI [9]: > 100 µM | TGI [10]: > 100 µM | TGI [19]: > 100 µM | TGI [11]: > 100 µM | TGI [18]: 83.4 µM | TGI [12]: > 100 µM | TGI [13]: > 100 µM | TGI [15]: > 100 µM | TGI [16]: > 100 µM

C=C(Cl)/C(=C\Cl)CCC(Cl)C(C)C (centres undefined)
TGI [1]: > 100 µM | TGI [2]: > 100 µM | TGI [3]: > 100 µM | TGI [4]: > 100 µM | TGI [5]: > 100 µM | TGI [6]: > 100 µM | TGI [7]: > 100 µM | TGI [8]: > 100 µM | TGI [9]: > 100 µM | TGI [10]: > 100 µM | TGI [19]: > 100 µM | TGI [11]: > 100 µM | TGI [18]: > 100 µM | TGI [12]: > 100 µM | TGI [14]: > 100 µM | TGI [15]: > 100 µM | TGI [16]: > 100 µM

COc1ccc2c3c([nH]c(=O)c2c1C(=O)O)-c1ccccc1CC3
TGI [1]: > 100 µM | TGI [2]: > 100 µM | TGI [3]: > 100 µM | TGI [4]: > 100 µM | TGI [5]: > 100 µM | TGI [6]: > 100 µM | TGI [7]: > 100 µM | TGI [8]: > 100 µM | TGI [9]: > 100 µM | TGI [10]: > 100 µM | TGI [19]: > 100 µM | TGI [11]: > 100 µM | TGI [18]: > 100 µM | TGI [12]: > 100 µM | TGI [13]: > 100 µM | TGI [15]: > 100 µM | TGI [16]: > 100 µM

COc1ccc(/C=C2\C[C@H]3[C@@H]4CC=C5C[C@@H](OC(C)=O)CC[C@]5(C)[C@H]4CC[C@]3(C)\C2=N\O)cc1OC
TGI [1]: > 100 µM | TGI [2]: > 100 µM | TGI [3]: > 100 µM | TGI [4]: > 100 µM | TGI [17]: > 100 µM | TGI [5]: > 100 µM | TGI [6]: 56.5 µM | TGI [7]: 27.2 µM | TGI [8]: > 100 µM | TGI [9]: > 100 µM | TGI [10]: > 100 µM | TGI [19]: > 100 µM | TGI [11]: > 100 µM | TGI [18]: > 100 µM | TGI [12]: > 100 µM | TGI [13]: > 100 µM | TGI [15]: > 100 µM | TGI [16]: 9.83 µM

O/N=C1\CC2(N3CCOCC3)CCC1(c1ccccc1)CC2
TGI [1]: > 100 µM | TGI [2]: > 100 µM | TGI [3]: > 100 µM | TGI [4]: > 100 µM | TGI [17]: > 100 µM | TGI [5]: > 100 µM | TGI [6]: > 100 µM | TGI [7]: > 100 µM | TGI [8]: > 100 µM | TGI [9]: > 100 µM | TGI [10]: > 100 µM | TGI [19]: > 100 µM | TGI [11]: > 100 µM | TGI [18]: > 100 µM | TGI [12]: > 100 µM | TGI [13]: > 100 µM | TGI [15]: > 100 µM | TGI [16]: > 100 µM

Cc1cc(C)c2c(n1)S(=O)(=O)N(CCCN1CCN(c3cccc(Cl)c3)CC1)/C(=C(\O)c1ccccc1)C2=O
TGI [1]: > 100 µM | TGI [2]: > 100 µM | TGI [3]: > 100 µM | TGI [4]: > 100 µM | TGI [17]: > 100 µM | TGI [5]: 44.4 µM | TGI [7]: 82.7 µM | TGI [8]: 88.8 µM | TGI [10]: > 100 µM | TGI [19]: > 100 µM | TGI [11]: > 100 µM | TGI [18]: > 100 µM | TGI [12]: > 100 µM | TGI [13]: > 100 µM | TGI [14]: > 100 µM | TGI [15]: > 100 µM | TGI [16]: 60.2 µM

O=c1[nH]c2cc([N+](=O)[O-])ccc2nc1/C(=N/Nc1ccccc1)C(O)c1ccco1 (centres undefined)
TGI [1]: > 100 µM | TGI [2]: > 100 µM | TGI [3]: > 100 µM | TGI [4]: > 100 µM | TGI [5]: > 100 µM | TGI [6]: 76.1 µM | TGI [7]: > 100 µM | TGI [8]: > 100 µM | TGI [9]: > 100 µM | TGI [10]: > 100 µM | TGI [19]: > 100 µM | TGI [18]: > 100 µM | TGI [12]: > 100 µM | TGI [13]: > 100 µM | TGI [15]: > 100 µM | TGI [16]: > 100 µM

COc1cc2oc(=O)cc(C)c2c(OC)c1O
TGI [1]: > 100 µM | TGI [2]: > 100 µM | TGI [3]: > 100 µM | TGI [5]: > 100 µM | TGI [6]: > 100 µM | TGI [7]: > 100 µM | TGI [8]: > 100 µM | TGI [9]: > 100 µM | TGI [10]: > 100 µM | TGI [19]: > 100 µM | TGI [11]: > 100 µM | TGI [18]: 94.8 µM | TGI [12]: > 100 µM | TGI [13]: > 100 µM | TGI [14]: > 100 µM | TGI [15]: > 100 µM | TGI [16]: > 100 µM

COc1ccc2c(c1)CC1COc3cc(OC)ccc3C1O2 (centres undefined)
TGI [2]: > 100 µM | TGI [3]: > 100 µM | TGI [4]: > 100 µM | TGI [17]: > 100 µM | TGI [5]: > 100 µM | TGI [6]: > 100 µM | TGI [7]: > 100 µM | TGI [10]: > 100 µM | TGI [11]: > 100 µM | TGI [18]: > 100 µM | TGI [12]: > 100 µM | TGI [13]: > 100 µM | TGI [14]: > 100 µM | TGI [15]: > 100 µM | TGI [16]: > 100 µM
